Data on one compound can be found in patent publication US7091204B2, “Sulfonamides” (SmithKline Beecham Corporation, priority 2001, dated 2006).

The target in this experiment is T1, human and rat GPR-14 (UniProt Q9UKP6).
T1 sequence (Q9UKP6 1-389): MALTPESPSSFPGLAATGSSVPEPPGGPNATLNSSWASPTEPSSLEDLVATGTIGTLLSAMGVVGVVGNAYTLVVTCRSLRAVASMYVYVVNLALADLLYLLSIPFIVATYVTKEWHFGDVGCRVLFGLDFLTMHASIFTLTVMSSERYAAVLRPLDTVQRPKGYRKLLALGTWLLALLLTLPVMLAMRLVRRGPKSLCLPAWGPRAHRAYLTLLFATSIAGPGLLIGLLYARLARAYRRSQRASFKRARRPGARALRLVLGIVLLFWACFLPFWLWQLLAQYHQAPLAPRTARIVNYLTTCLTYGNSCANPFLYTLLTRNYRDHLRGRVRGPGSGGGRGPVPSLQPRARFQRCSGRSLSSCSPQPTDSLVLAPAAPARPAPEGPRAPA
Kind of experiment: Radioligand binding: [125I] h-U-II binding to HEK-293 cell membranes. Particulars: HEK-293 cell membranes with stable cloned GPR-14; 200 pM [125I] h-U-II; species for the value not stated. The method, then:
HEK-293 cell membranes containing stable cloned human and rat GPR-14 (20 ug/assay) were incubated with 200 pM [125I] h-U-II (200 Ci/mmol^−1 in the presence of increasing concentrations of test compounds in DMSO (0.1 nM to 10 uM), in a final incubation volume of 200 ul (20 mM Tris-HCl, 5 mM MgCl2). Incubation was done for 30 minutes at room temperature followed by filtration GF/B filters with Brandel cell harvester. ^125I labeled U-II binding was quantitated by gamma counting. Nonspecific binding was defined by ^125I U-II binding in the presence of 100 nM of unlabeled human U-II. Analysis of the data was performed by nonlinear least square fitting.

As a reminder, the Ki is a dissociation constant, usually derived from enzyme kinetics or from competition with a known ligand. In turn, `CN1CC[C@@H](Oc2cc(NS(=O)(=O)c3cnc(Cl)nc3OCC(F)(F)F)ccc2Cl)C1` [Example 14, 2-Chloro-4-(2,2,2-trifluoro-ethoxy)-pyrimidine-5-sulfonic acid [4-chloro-3-((R)-1-methyl-pyrrolidin-3-yloxy)-phenyl]-amide] gave a Ki of 590 nM.
